# Marks after values point to notes of the source that are not given here.
# Legend:
# [1] = In vivo acute toxicity test of injected ligands in mice
# Experimental: The test of acute toxicity of novel and comparative ligands was carried out as follows. Groups of five mice were each given a single i.p. injection of […] of ligand and a day for 10 days or given two i.p. injections of […] in 8 hours. The ligand was dissolved in 0.5 to 1.0 ml of saline at pH 7 to 8. After a period of observation, the mice were killed; selected tissues were removed and fixed for histopathological examination; and unusual findings at autopsy were recorded. […]
# [2] = Promoting excretion of U(VI) in mice by injected ligand; type: in vivo
# Excerpt: Animal studies were completed using methods detailed in Radiation Protection Dosimetry, in press, P. W. Durbin et al., "In Vivo Chelation of Am(III), Pu(IV), Np(V) and U(VI) in Mice by TREN-(Me-3,2-HOPO)"; Radiation Protection Dosimetry, 17, No. 1, 1989, p. 351, P. W. Durbin et al., "Removal of ^238Pu(IV) from Mice by Polycatechoylate, -Hydroxamate or -Hydroxypyridinonate Ligands"; Radiation Research, 99, 1984, p. 85, P. W. Durbin et al., "Specific Sequestering Agents for the Actinides ..."; Radiation Research, 99, 1984, p. 106, P. W. Durbin et al., "Removal of Pu and Am from Beagles and Mice ..."; Radiation Research, 81, 1980, p. 170, R. D. Lloyd et al., and P. W. Durbin et al., "Specific Sequestering Agents for the Actinides ...". The foregoing articles are hereby incorporated by reference.
# The ^232U was obtained from the Isotope Products Laboratory, Burbank, CA, and ^234,235U was obtained as U metal from long-held LBL storage. The two U sources were combined and dissolved in 6N HNO3, dried, and redissolved in 0.1 N HCl. The daughter radioactivities were removed by elution from a Dowex-50X4 column (22 cm length, 0.7 cm diameter, 1.5 mL·min^-1 flow rate) with 3.2N HCl. The U fractions (previously identified by a trial run with ^234,235U alone) were combined, dried, and redissolved in 0.14M NaCl at pH 5.5.
# One of the comparative chelating agents TREN-Me-3,2-HOPO, was also tested for effectiveness in promoting excretion of ^241Am(III), ^237Np(V), and ^232U(VI) by injection into mice, as follows: Mice, in groups of five, each received an intravenous injection of (a) 1100 Bq of ^241AM(III) in 0.2 mL of citrate buffer, (b) 150 Bq of ^232UO2Cl2 plus 3.6 mg of ^235UO2Cl2 in 0.2 mL of saline, or (c) 200 Bq of ^237NpO2Cl (7.5 mg of ^237NpO2Cl) in 0.2 mL of saline. Three to five minutes later, […] of TREN-Me-3,2-HOPO was injected intraperitoneally in 0.5 mL of saline. The mice were killed 24 hours after the actinide injection, frozen, and dissected after partial thawing. The skeleton, soft tissues, and separated excreta were radioanalyzed by counting the ^241Am gamma rays, or the alpha particles emitted by ^237Np or ^232U (and its ingrowing daughters). Removal of those actinides from mice by injected TREN-Me-3,2-HOPO is summarized in Table 5, which also includes data for mice similarly treated with CaNa3-DTPA and for actinide-injected controls. […] The structure of Am(III)-TREN-Me-3,2-HOPO is considered to resemble that of the Gd(III) complexes (see example 20). Complexation of the fraction of Np(V) that is reduced in vivo to Np(IV) is considered to resemble that of Pu(IV). Complexation of U(VI) is considered to take place through binding to UO2^2+.
# [3] = protocol I, 100 µmol kg^-1 x 10 daily i.p., study length 11 d
# [4] = protocol I, 100 µmol kg^-1 x 10 daily i.p., study length 21 d
# [5] = protocol II, 500 µmol kg^-1 x 2 in 8 h, study length 8 d
# [6] = U(VI), ligand 30 mmol.kg-1 i.p at 3 to 5 min after actinide i.v., kill at 24 h
# [7] = U(VI), ligand 30 mmol.kg-1 i.p at 3 to 5 min after actinide i.v., kill at 24 h, pooled
smiles,measurement,setting,value
"Cn1ccc(C(=O)NCCN(CCNC(=O)c2ccn(C)c(=O)c2O)CCNC(=O)c2ccn(C)c(=O)c2O)c(O)c1=O [TREN-Me-3,2-HOPO, N,N,N,-Tris[(3-hydroxy-1-methyl-2-oxo-1,2-dihydropyridin-4-yl)carboxamidoethyl]-amine]",toxicity (in words),[1]; even at the relatively high dosage of 2x500 µmol/kg in 8 hours,low toxicity
same,no. of survivors,[1]; [3],5
same,percent control mean + SD: body weight,[1]; [3],102 ± 1 percent control
same,percent control mean + SD: plasma urea N,[1]; [3],112 ± 10 percent control
same,no. of survivors,[1]; [4],5
same,percent control mean + SD: body weight,[1]; [4],106 ± 4 percent control
same,percent control mean + SD: plasma urea N,[1]; [4],120 ± 9 percent control
same,no. of survivors,[1]; [5],19
same,percent control mean + SD: body weight,[1]; [5],101 ± 4 percent control
same,percent control mean + SD: plasma urea N,[1]; [5],119 ± 15 percent control
same,"percent of injected actinide ± SD at 24 h, tissues: kidneys",[2]; [6],"9.4 ± 6.0^d,e percent of injected actinide"
same,"percent of injected actinide ± SD at 24 h, tissues: skeleton",[2]; [6],16 ± 2.4% of injected actinide
same,"percent of injected actinide ± SD at 24 h, tissues: soft tissue",[2]; [6],1.6 ± 0.3% of injected actinide
same,"percent of injected actinide ± SD at 24 h, whole body",[2]; [6],"27 ± 8.5^d,e percent of injected actinide"
same,"percent of injected actinide ± SD at 24 h, tissues: liver","[2]; U(VI), ligand 30 mmol.kg-1 i.p at 3 to 5 min after actinide i.v., kill at 24 h, livers of some groups pooled",0.6 ± 0.3% of injected actinide
same,"percent of injected actinide at 24 h, excreta: feces and GI contents",[2]; [7],2.3% of injected actinide
same,"percent of injected actinide at 24 h, excreta: urine 0-24 h",[2]; [7],70% of injected actinide
same,U burden in the kidneys compared with controls (in words),[2]; intraperitoneally three to five minutes after actinide,more than one-half of the U burden in the kidneys was removed

# From patent EP0840727B1, “3-HYDROXY-2(1H)-[…] AGENTS” (priority 1995, dated 1997)
